According to patent publication US8957057B2 (priority 2009, dated 2015):
Where “and” joins values, the source holds several entries; their conditions need not be identical. Equal values may be shown once.

Columns and labels:
[1] = test system: Prostate specific antigen (PSA) secretion in LNCap.FGC cells; assay: cells; details: for PSA concentration: 48 hours
Text: Prostate specific antigen (PSA) is a protein secreted by the […] cells of prostate. PSA facilitates semen liquification and presents in male serum in minute amount. In the serum of male subjects suffering from prostate cancer, benign prostatic hyperplasia or prostatic infection, the quantity of PSA presented in serum may increase. Therefore, PSA is so far the most valuable marker in screening and diagnosing prostate tumors. PSA also plays an important role in determining a cancer's stage of development and evaluating the effect of treatment. The amounts of PSA were determined by using Prostate Specific Antigen ELISA kit (Cat. No. BQ067T, Bio Quant, USA). […] 50 μl of each of the retrieved culture media and 50 μl of each of the standard PSA of 0, 2, 4, 8, 25, and 50 ng/ml were added to the wells of a 96-well plate, respectively. Then, 50 μl assay buffer was further added to the wells, and the plate was incubated at room temperature in the dark for 30 minutes. The supernatant was removed and the wells were washed three times with 300 μl wash buffer. […] The supernatant was removed and the wells and washed three times with 300 μl wash buffer. […] Within 15 minutes after completion of the previous step, the wells were examined by a ELISA Reader at 450 nm.

androgen receptor = androgen receptor (Homo sapiens, UniProt P10275); assay: cell-based; format: cell-based
Experimental: Human MDA-MB-453 cells were used in this assay. The cells in the exponential phase of growth (cultured in RPMI 1640 medium (Gibco, USA), 10% FBS) were washed off with 1 ml of 0.05% trypsin, centrifuged and collected in a centrifuge tube. 1×10^7 cells were resuspended in 270 μl BES medium (5 mM BES in RPMI 1640 medium) and 8 to 10 μg of pPSA-SEAP2 plasmid (see FIG. 4) were also added to the medium.
25 μl of media were retrieved from each cell of the 96-well plate and heated in a 65° C. water bath for 30 minutes. The media were then treated by Phospha-Light™ assay system (Applied Biosystem) in order to detect the secreted alkaline phosphatase (SEAP) reporter protein. The intensity of luminescence was detected by Victor™ Light luminescence counter to determine the activity of the samples in the modulation of the androgen receptor.
Human MDA-MB-453 cells were used in this assay. The cells in the exponential phase of growth (cultured in RPMI 1640 medium (Gibco), 10% FBS) were washed off with 1 ml of 0.05% trypsin, centrifuged and collected in a centrifuge tube. 1×10^7 cells were resuspended in 270 μl BES medium (5 mM BES in RPMI 1640 medium) and 8 to 10 μg of pPSA-SEAP2 plasmid (see FIG. 4) were also added to the medium.

LNCap.FGC cells = details: MTT, 72 hours, up to 20 μM
Experimental: (§1) The survive rate of cell was determined by the MTT (3-(4,5-dimethyl-2-thiazolyl)-2,5-diphenyl tetrazolium bromide) method.
(§2) The supernatant of the culture was removed.

[2] = test system: MRC-5, MCF-7, HepG2, AGS, HeLa, HEK 293 cells; details: MTT, 72 hours, up to 20 μM
Experimental: as §1, §2

androgen receptor, sequence (P10275 whole entry, looked up): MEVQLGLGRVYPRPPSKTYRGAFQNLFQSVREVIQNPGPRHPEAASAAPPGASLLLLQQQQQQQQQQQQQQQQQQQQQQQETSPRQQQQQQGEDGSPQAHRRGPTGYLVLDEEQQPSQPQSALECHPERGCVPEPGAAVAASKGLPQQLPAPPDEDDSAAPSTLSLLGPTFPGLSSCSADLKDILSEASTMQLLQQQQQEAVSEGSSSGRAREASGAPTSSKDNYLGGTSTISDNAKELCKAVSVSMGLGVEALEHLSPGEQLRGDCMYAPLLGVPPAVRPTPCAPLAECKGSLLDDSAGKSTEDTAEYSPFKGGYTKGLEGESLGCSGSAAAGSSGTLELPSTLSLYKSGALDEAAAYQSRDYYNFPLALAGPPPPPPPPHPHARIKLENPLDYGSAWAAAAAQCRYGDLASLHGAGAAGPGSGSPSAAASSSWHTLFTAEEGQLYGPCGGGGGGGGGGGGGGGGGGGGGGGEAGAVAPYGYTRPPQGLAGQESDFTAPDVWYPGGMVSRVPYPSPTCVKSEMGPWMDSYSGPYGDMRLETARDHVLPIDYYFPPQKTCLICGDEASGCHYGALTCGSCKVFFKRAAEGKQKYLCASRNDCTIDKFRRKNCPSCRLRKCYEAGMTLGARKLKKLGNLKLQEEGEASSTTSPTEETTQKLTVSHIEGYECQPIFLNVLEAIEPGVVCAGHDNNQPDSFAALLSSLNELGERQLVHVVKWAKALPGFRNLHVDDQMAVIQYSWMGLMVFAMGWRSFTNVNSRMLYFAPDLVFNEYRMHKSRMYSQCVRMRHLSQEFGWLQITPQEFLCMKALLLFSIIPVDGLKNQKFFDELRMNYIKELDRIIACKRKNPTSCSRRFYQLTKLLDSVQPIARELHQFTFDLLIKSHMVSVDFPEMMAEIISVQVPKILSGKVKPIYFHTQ

C[C@]12CCC(=O)C[C@@H]1CC[C@@H]1[C@@H]2CC[C@]2(C)[C@@H](O)CC[C@@H]12 [DHT, 5α-dihydrotestosterone, reference compound] was tested. Which PSA concentration ([1]; DHT 5 nM alone) did it give?
The PSA concentration was 12.61 ng/mL.

Which inhibition at 26 µM (androgen receptor; MDA-MB-453, read-out: inhibition of the reporter activity) does the source give for C/C=C/C1=CC2=C(CO1)C(=O)[C@]1(C)OC(=O)[C@H](C(=O)CCCCCCC)[C@H]1C2 [ankaflavin] here?
The inhibition at 26 µM was 41%.

Which “inhibition of the reporter activity” value (androgen receptor) does the source give for C/C=C/C1=CC2=C(CO1)C(=O)[C@]1(C)OC(=O)[C@H](C(=O)CCCCC)[C@H]1C2 [monascin] here?
The value was 55%.

Which results are given for C/C=C/C1=CC2=C(CO1)C(=O)[C@]1(C)OC(=O)[C@H]([C@@H](O)CCCCC)[C@H]1C2 [monascuspiloin, (3S,3aR,9aR)-3a,4-dihydro-3-((S)-1-hydroxyhexyl)-9a-methyl-6-((E)-prop-1-enyl)-3H-furo [3,2-g]isochromene-2,9(8H,9aH)-dione]?
IC50 (androgen receptor; read-out: IC50 for inhibition of the activation of the androgen receptor): ~12 µM and 12 µM; cytotoxic effect on LNCap.FGC (LNCap.FGC cells): does not have a significant cytotoxic effect; cytotoxic effect on the other 6 non-human-prostate-cancer cell lines [2]: does not have a significant cytotoxic effect; PSA concentration ([1]; DHT 5 nM + Monascuspiloin 5 μM): 10.27 ng/mL; PSA concentration ([1]; DHT 5 nM + Monascuspiloin 10 μM): 9.71 ng/mL; PSA concentration ([1]; DHT 5 nM + Monascuspiloin 25 μM): 8.77 ng/mL; inhibition at 20 µM ([1]; Homo sapiens, read-out: inhibition of the production of PSA induced by DHT): 43%
